Test results taken from ChEMBL document CHEMBL4420065, “Synaptojanin-2 inhibitors for use in the treatment of cancer” (2017).
The source made the active and inactive calls. The calls are words filed in the database; no cut-off is given here.

Test system: MDA-MB-231
Conditions: Homo sapiens, 10 uM
Description: Inhibition of cell invasion of human MDA-MB-231 cells at 10 uM incubated for 96 hrs by Matrigel based assay

Row | Structure (SMILES) | inhibition
1 | COc1cc(C2c3c(cc(OC)c(O)c3OC)CC(CO)C2COC2OCC(O)C(O)C2O)cc(OC)c1O (stereo not given) | Active
2 | Cc1c(O)cc2c(c1O)C(=O)[C@H](O)[C@@H](c1ccc(O)c(O)c1)O2 | Active
3 | O=C1C[C@@H](c2ccc(O)c(O)c2)Oc2cc(O[C@@H]3O[C@H](CO)[C@@H](O)[C@H](O)[C@H]3O)cc(O)c21 | Active
4 | COc1cc(O)cc(O)c1C(=O)c1ccc(O)c(O)c1 | Active
5 | C/C(=C\CO[C@@H]1O[C@H](CO)[C@@H](O)[C@H](O)[C@H]1O)C(O)CCC(C)(C)O (stereo not given in full) | Active
